According to the supplement of paper PMC10307832:

How the values were obtained:
Assay in all cases: relative viability (nuclei count vs DMSO), 5 days (fraction); higher = more cells survive
[1] = compound: CC1=C(CC(=O)O)c2cc(F)ccc2/C1=C\c1ccc([S+](C)[O-])cc1 [Sulindac] + Cc1nc(NC(=O)N2CCC[C@H]2C(N)=O)sc1-c1ccnc(C(C)(C)C(F)(F)F)c1 [Alpelisib] (partner 2 µM)
Summary of the method: (§1)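 Lung cancer cell lines in 1536-well plates were dosed by pin tool the day after seeding, either with one drug alone or with a fixed anchor-drug dose plus five library-drug doses (not always all listed) in √10 steps. After 5 days, cells were fixed and their nuclei stained in one step (final 0.05% Triton X-100, 1% formaldehyde, 1 ug/ml Hoechst), then counted on 4× images. Relative viability is the nuclei count in treated wells divided by that in vehicle wells. Values are medians of duplicate plates.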

[2] = compound: CC1=C(CC(=O)O)c2cc(F)ccc2/C1=C\c1ccc([S+](C)[O-])cc1 [Sulindac] + Cc1nc(Nc2ncc(C(=O)Nc3c(C)cccc3Cl)s2)cc(N2CCN(CCO)CC2)n1 [Dasatinib] (partner 0.075 µM)
Summary of the method: as §1

[3] = compound: CN[C@@H]1C[C@H]2O[C@@](C)([C@@H]1OC)n1c3ccccc3c3c4c(c5c6ccccc6n2c5c31)C(=O)NC4 [Staurosporine] + COc1cccc2cc(-c3nc([C@H]4CC[C@H](C(=O)O)CC4)n4ncnc(N)c34)[nH]c12 [OSI-027] (partner 0.5 µM)
Summary of the method: as §1

[4] = compound: CN[C@@H]1C[C@H]2O[C@@](C)([C@@H]1OC)n1c3ccccc3c3c4c(c5c6ccccc6n2c5c31)C(=O)NC4 [Staurosporine] + Nc1nc2[nH]cc(CCc3ccc(C(=O)N[C@@H](CCC(=O)O)C(=O)O)cc3)c2c(=O)[nH]1 [Pemetrexed] (partner 0.2 µM)
Summary of the method: as §1

Cell Line	relative viability ([1]; first compound 0.08 µM)	relative viability ([1]; first compound 0.253 µM)	relative viability ([1]; first compound 0.8 µM)	relative viability ([1]; first compound 2.53 µM)	relative viability ([1]; first compound 8 µM)	relative viability ([2]; first compound 0.08 µM)	relative viability ([2]; first compound 0.253 µM)	relative viability ([2]; first compound 2.53 µM)	relative viability ([2]; first compound 8 µM)	relative viability ([3]; first compound 0.005 µM)	relative viability ([3]; first compound 0.01581 µM)	relative viability ([3]; first compound 0.05 µM)	relative viability ([3]; first compound 0.1581 µM)	relative viability ([3]; first compound 0.5 µM)	relative viability ([4]; first compound 0.005 µM)	relative viability ([4]; first compound 0.01581 µM)	relative viability ([4]; first compound 0.05 µM)	relative viability ([4]; first compound 0.1581 µM)	relative viability ([4]; first compound 0.5 µM)	relative viability ([2]; first compound 0.8 µM)
NCI-H1734	0.712	0.696	0.64	0.693	0.805	0.514	0.428	0.445	0.5	0.456	0.245	0.209	0.13	0.0703	0.394	0.305	0.338	0.133	0.141	
NCI-H441	0.724	0.713	0.642	0.888	0.917	0.592	0.643	0.647	0.83	0.368	0.188	0.175	0.176	0.137	0.246	0.203	0.177	0.157	0.147	0.406
NCI-H838	1.22	0.983	0.769	0.975	1.08	0.275	0.334	0.281	0.34	0.207	0.153	0.196	0.162		0.205	0.148	0.144	0.111	0.112	0.311
NCI-H23	0.763	0.78	0.636	0.658	0.859	0.856		0.755	0.78	0.518		0.248	0.16	0.0998	0.459	0.143	0.216	0.163	0.113	0.801
NCI-H1395	0.948	1.05	0.975	0.973	1.08	0.379	0.406	0.368	0.485	0.605	0.395	0.42	0.249	0.239	0.789	0.341	0.316	0.31	0.255	0.613
NCI-H647	1.43	1.27	0.718	1.15	1.23	0.257	0.201	0.194	0.247	0.29	0.123	0.149	0.0899	0.0651	0.118	0.0997	0.104	0.0736	0.0566	0.126
NCI-H520	0.965	0.839	0.894	0.873	1.17	0.241	0.201	0.204	0.226	0.294	0.319	0.274	0.268	0.141	0.579	0.394	0.295	0.181	0.148	
